Assay results: PubChem BioAssay AID256 (DTP/NCI, 2004)
Values joined by “and” are separate entries in the source; they are usually repeats but may differ in a detail not shown here. Equal entries are not always repeated. Inconclusive results and toxic doses are left out. How the source made its calls: active means survival T/C of 150% or more; inactive means T/C below 125% in these data.

Test system: CD2F1 mice, L1210 leukemia ip, survival T/C
Assay: NCI In Vivo Anticancer Drug Screen. Data for tumor model L1210 Leukemia (intraperitoneal) in CD2F1 (CDF1) mice
Conditions: higher = longer survival
Procedure, shortened: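 Compound-dosed mice with transplantable tumor versus matched vehicle controls; endpoint ratio T/C reported.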

[1] = endpoint: mean survival time, dose: 100.0 mg/kg/injection, schedule: Q04DX003 (ip), vehicle: saline with Tween-80
[2] = endpoint: mean survival time, dose: 200.0 mg/kg/injection, schedule: Q04DX003 (ip), vehicle: saline with Tween-80
[3] = endpoint: mean survival time, dose: 100.0 mg/kg/injection, schedule: Q01DX009 (ip), vehicle: saline with Tween-80
[4] = endpoint: mean survival time, dose: 200.0 mg/kg/injection, schedule: Q01DX009 (ip), vehicle: saline with Tween-80
[5] = endpoint: mean survival time, dose: 400.0 mg/kg/injection, schedule: Q01DX009 (ip), vehicle: saline with Tween-80
[6] = endpoint: mean survival time, dose: 400.0 mg/kg/injection, schedule: Q04DX003 (ip), vehicle: saline with Tween-80
[7] = endpoint: mean survival time, dose: 50.0 mg/kg/injection, schedule: Q01DX009 (ip), vehicle: Klucel (hydroxypropylcellulose) (HPC)
[8] = endpoint: mean survival time, dose: 100.0 mg/kg/injection, schedule: Q01DX009 (ip), vehicle: Klucel (hydroxypropylcellulose) (HPC)
[9] = endpoint: mean survival time, dose: 200.0 mg/kg/injection, schedule: Q01DX009 (ip), vehicle: Klucel (hydroxypropylcellulose) (HPC)
[10] = endpoint: mean survival time, dose: 6.25 mg/kg/injection, schedule: Q01DX009 (ip), vehicle: water
[11] = endpoint: mean survival time, dose: 12.5 mg/kg/injection, schedule: Q01DX009 (ip), vehicle: water
[12] = endpoint: mean survival time, dose: 25.0 mg/kg/injection, schedule: Q01DX009 (ip), vehicle: water
[13] = endpoint: mean survival time, dose: 50.0 mg/kg/injection, schedule: Q01DX009 (ip), vehicle: water
[14] = endpoint: mean survival time, dose: 100.0 mg/kg/injection, schedule: Q01DX009 (ip), vehicle: water
[15] = endpoint: mean survival time, dose: 100.0 mg/kg/injection, schedule: Q01DX001 (ip), vehicle: saline with Tween-80

Measured: T/C

COc1cc2nc(C(O)C(O)c3nc4cc(OC)c(OC)cc4[nH]3)[nH]c2cc1OC (centres undefined)
inactive: [1] 101 % of control | [2] 98 % of control

O=C(O)CC(C(=O)O)c1ccc([N+](=O)[O-])cc1 (centres undefined)
inactive: [3] 93 % of control | [4] 93 % of control | [5] 97 % of control

C=C(C)C12OC3(CCCCCCCCC)OC1C1C4OC4(COC(=O)CCCCCCCCCCCCCCC)C(O)C4(O)C(=O)C(C)=CC4C1(O3)C(C)C2OC(=O)c1ccccc1 (centres undefined)
inactive: endpoint: mean survival time, dose: 5.0 micrograms/kg/injection, schedule: Q01DX009 (ip), vehicle: saline + alcohol 97 % of control | endpoint: mean survival time, dose: 10.0 micrograms/kg/injection, schedule: Q01DX009 (ip), vehicle: saline + alcohol 117 % of control | endpoint: mean survival time, dose: 20.0 micrograms/kg/injection, schedule: Q01DX009 (ip), vehicle: saline + alcohol 105 % of control | endpoint: mean survival time, dose: 40.0 micrograms/kg/injection, schedule: Q01DX009 (ip), vehicle: saline + alcohol 112 % of control

O=C(NCCCCOc1ccc([N+](=O)[O-])cc1Cl)NC1CCCCC1
inactive: [1] 102 % of control | [2] 94 % of control | [6] 91 % of control

CC(O)C1(O)C(O)CC(OC2c3cc4c(c(O)c3[C@@H]3C[C@@]2(C)OC32C=c3cc[nH]c3=N2)C(=O)c2cccc(O)c2C4=O)OC1C (some centres undefined)
inactive: endpoint: median survival time, dose: 6.25 mg/kg/injection, schedule: Q01DX009 (ip), vehicle: saline with Tween-80 114 % of control | endpoint: median survival time, dose: 12.5 mg/kg/injection, schedule: Q01DX009 (ip), vehicle: saline with Tween-80 118 % of control | endpoint: median survival time, dose: 25.0 mg/kg/injection, schedule: Q01DX009 (ip), vehicle: saline with Tween-80 113 % of control | endpoint: median survival time, dose: 50.0 mg/kg/injection, schedule: Q01DX009 (ip), vehicle: saline with Tween-80 97 % of control

CC(=O)C1CCC2(C)C(CCC3C4CCC(C(C)=O)C4(C)CC(=O)C32)C1 (centres undefined)
inactive: [7] 96 % of control | [8] 100 % of control | [9] 93 % of control

CC(NCCN(C)C)C1CCC2C3CCC4CC(O)CCC4(C)C3CCC12C (centres undefined)
inactive: endpoint: mean survival time, dose: 12.5 mg/kg/injection, schedule: Q04DX003 (ip), vehicle: saline with Tween-80 101 % of control | endpoint: mean survival time, dose: 25.0 mg/kg/injection, schedule: Q04DX003 (ip), vehicle: saline with Tween-80 95 % of control | endpoint: mean survival time, dose: 50.0 mg/kg/injection, schedule: Q04DX003 (ip), vehicle: saline with Tween-80 101 % of control

CC1(c2ccc(O)cc2)OCCCC1([NH-])C[NH-].[Cl][Pt+2][Cl] (centres undefined)
inactive: endpoint: median survival time, dose: 10.0 mg/kg/injection, schedule: Q04DX003 (ip), vehicle: saline 110 % of control | endpoint: median survival time, dose: 20.0 mg/kg/injection, schedule: Q04DX003 (ip), vehicle: saline 106 % of control | endpoint: median survival time, dose: 40.0 mg/kg/injection, schedule: Q04DX003 (ip), vehicle: saline 100 % of control | endpoint: median survival time, dose: 80.0 mg/kg/injection, schedule: Q04DX003 (ip), vehicle: saline with Tween-80 107 % of control | endpoint: median survival time, dose: 80.0 mg/kg/injection, schedule: Q04DX003 (ip), vehicle: saline 103 % of control | endpoint: median survival time, dose: 160.0 mg/kg/injection, schedule: Q04DX003 (ip), vehicle: saline with Tween-80 107 % of control | endpoint: median survival time, dose: 320.0 mg/kg/injection, schedule: Q04DX003 (ip), vehicle: saline with Tween-80 107 % of control

COc1cc2c(cc1O)C(C)NCC2 (centres undefined)
inactive: endpoint: mean survival time, dose: 75.0 mg/kg/injection, schedule: Q01DX001 (ip), vehicle: saline 109 % of control | endpoint: mean survival time, dose: 150.0 mg/kg/injection, schedule: Q01DX001 (ip), vehicle: saline 101 % of control

CS(=O)(=O)OCC1NC(=O)C(COS(C)(=O)=O)NC1=O (centres undefined)
inactive: endpoint: mean survival time, dose: 3.13 mg/kg/injection, schedule: Q01DX009 (ip), vehicle: water 103 % of control | [10] 101 % of control | [11] 105 % of control | [12] 106 % of control | [13] 101 % of control | [14] 100 % of control

COc1ccc(-n2c(C)nc3c(cnn3C3OC(CO)C(O)C3O)c2=O)cc1 (centres undefined)
inactive: endpoint: median survival time, dose: 12.5 mg/kg/injection, schedule: Q01DX005 (ip), vehicle: saline 103 % of control | endpoint: median survival time, dose: 25.0 mg/kg/injection, schedule: Q01DX005 (ip), vehicle: saline 102 % of control | endpoint: median survival time, dose: 50.0 mg/kg/injection, schedule: Q01DX005 (ip), vehicle: saline 105 % of control | endpoint: median survival time, dose: 100.0 mg/kg/injection, schedule: Q01DX005 (ip), vehicle: saline 111 % of control | endpoint: median survival time, dose: 200.0 mg/kg/injection, schedule: Q01DX005 (ip), vehicle: saline 103 % of control

C=CCOc1c(C)cc(C)cc1/C=C/C
inactive: [3] 94 % of control | [4] 89 % of control

COc1cc(/C=N\NC(C)=O)cc(OC)c1OC
inactive: [1] 101 % of control | [2] 95 % of control

COc1ccc(-c2csc(=[N+]3CCCCC3)s2)cc1
inactive: endpoint: mean survival time, dose: 1.56 mg/kg/injection, schedule: Q01DX009 (ip), vehicle: water 94 % of control and 102 % of control | endpoint: mean survival time, dose: 3.12 mg/kg/injection, schedule: Q01DX009 (ip), vehicle: water 96 % of control and 102 % of control | [10] 96 % of control and 98 % of control | [11] 98 % of control and 106 % of control | [12] 113 % of control and 109 % of control

C1CC[N-]CC1.C1CC[N-]CC1.[Cl][Pt+2]([Cl])([Cl])[Cl]
inactive: [1] 97 % of control | [2] 92 % of control | [6] 93 % of control

O=C1C=CC(c2ccccc2)(c2ccccc2)C=C1
inactive: [15] 93 % of control | endpoint: mean survival time, dose: 400.0 mg/kg/injection, schedule: Q01DX001 (ip), vehicle: saline with Tween-80 86 % of control

CCCCCCCCCCCCCCCCCCNC(=O)Nc1ccc(C)c(C)c1
inactive: [3] 104 % of control | [1] 91 % of control | [4] 105 % of control | [2] 89 % of control | [5] 105 % of control | [6] 98 % of control

NNS(=O)(=O)c1ccc(Oc2ccc(S(=O)(=O)NN)cc2)cc1
inactive: [7] 101 % of control | [8] 96 % of control | [9] 108 % of control

NCCCc1ccccc1
inactive: endpoint: mean survival time, dose: 100.0 mg/kg/injection, schedule: Q01DX009 (ip), vehicle: saline 103 % of control | endpoint: mean survival time, dose: 200.0 mg/kg/injection, schedule: Q01DX009 (ip), vehicle: saline 90 % of control

CCCCCC(CN(C)C)C(=O)/C=C\c1ccc(Cl)cc1Cl (centres undefined)
inactive: endpoint: mean survival time, dose: 12.5 mg/kg/injection, schedule: Q01DX009 (ip), vehicle: alcohol 102 % of control | endpoint: mean survival time, dose: 25.0 mg/kg/injection, schedule: Q01DX009 (ip), vehicle: alcohol 102 % of control

COc1cc2ccc(CC(N)=O)cc2cc1OC
inactive: [3] 100 % of control | [4] 97 % of control | [5] 97 % of control

Cc1cccc(C)c1OC(=O)Cl
inactive: endpoint: mean survival time, dose: 5.0 mg/kg/injection, schedule: Q01DX001 (ip), vehicle: saline 98 % of control | endpoint: mean survival time, dose: 10.0 mg/kg/injection, schedule: Q01DX001 (ip), vehicle: saline 97 % of control | endpoint: mean survival time, dose: 20.0 mg/kg/injection, schedule: Q01DX001 (ip), vehicle: saline 97 % of control | endpoint: mean survival time, dose: 40.0 mg/kg/injection, schedule: Q01DX001 (ip), vehicle: saline 97 % of control

CC(=O)C1=CCC2C3CC=C4CC(OC#N)CCC4(C)C3CCC12C (centres undefined)
inactive: [3] 97 % of control | [4] 92 % of control | [5] 89 % of control

CC(=O)OCC1OC(OC(C)=O)C([NH-])C(OC(C)=O)C1OC(C)=O.CC(=O)OCC1OC(OC(C)=O)C([NH-])C(OC(C)=O)C1OC(C)=O.[Cl][Pt+2][Cl] (centres undefined)
inactive: endpoint: mean survival time, dose: 12.5 mg/kg/injection, schedule: Q04DX003 (ip), vehicle: saline 98 % of control | endpoint: mean survival time, dose: 25.0 mg/kg/injection, schedule: Q04DX003 (ip), vehicle: saline 93 % of control | endpoint: mean survival time, dose: 50.0 mg/kg/injection, schedule: Q04DX003 (ip), vehicle: saline 95 % of control | endpoint: mean survival time, dose: 100.0 mg/kg/injection, schedule: Q04DX003 (ip), vehicle: saline 90 % of control | endpoint: mean survival time, dose: 200.0 mg/kg/injection, schedule: Q04DX003 (ip), vehicle: saline 95 % of control

O=c1ccc2cc(Cl)cc([N+](=O)[O-])c2o1
inactive: endpoint: mean survival time, dose: 100.0 mg/kg/injection, schedule: Q01DX001 (ip), vehicle: Klucel (hydroxypropylcellulose) (HPC) 102 % of control | endpoint: mean survival time, dose: 200.0 mg/kg/injection, schedule: Q01DX001 (ip), vehicle: Klucel (hydroxypropylcellulose) (HPC) 99 % of control | endpoint: mean survival time, dose: 400.0 mg/kg/injection, schedule: Q01DX001 (ip), vehicle: Klucel (hydroxypropylcellulose) (HPC) 99 % of control

CCCCn1c(C)nc2c([N+](=O)[O-])cc(C(F)(F)F)cc21
inactive: endpoint: mean survival time, dose: 50.0 mg/kg/injection, schedule: Q01DX001 (ip), vehicle: saline with Tween-80 95 % of control | [15] 98 % of control | endpoint: mean survival time, dose: 200.0 mg/kg/injection, schedule: Q01DX001 (ip), vehicle: saline with Tween-80 95 % of control

COc1ccc([N+]2=Cc3cc(OC)c(OC)cc3CC2)cc1OC
inactive: [11] 89 % of control | [12] 94 % of control | [13] 97 % of control | [14] 91 % of control
